Measurements reported in article PMC11359702, “Synthesis and Biochemical Evaluation of Ethanoanthracenes and Related Compounds: Antiproliferative and Pro-Apoptotic Effects in Chronic Lymphocytic Leukemia (CLL)” (Pharmaceuticals, 2024).
Several values for one entry are separate records, joined by “and”; a condition that tells them apart may be missing. Equal values may be shown once. Read-outs that look alike come from different tables or passages of the source.

How the values were obtained:
[1] = tested on: SNB-75; assay: NCI-60 five-dose assay; assay type: cell-based, human
Protocol: (§1) A number of our most promising compounds identified through preliminary cell viability testing (23c, 23d, 23f, 23h, 23l, 23m, 23n, 23o, 24f, 24l, 25n and 26n) were selected for NCI drug screening in the 60-cell-line panel. The panel includes nine subcategories based on cancer tissue types, which include leukemia, ovarian, central nervous system, breast, lung, prostate, skin, renal and colon cancer. The compounds were initially assessed in a one-dose assay at a fixed treatment concentration of 10 µM. The compounds selected for further investigation were progressed to a five-dose assay across the concentration ranges of 0.01, 0.1, 1, 10 and 100 µM [72]. The endpoints assessed in the screening protocol were GI50, TGI and LC50 [72].

[2] = tested on: HL-60(TB); assay: NCI-60 five-dose assay; assay type: cell-based, human
[3] = tested on: HG-3 cells; conditions: 10 µM
[4] = tested on: PGA-1 cells; conditions: 10 µM
[5] = HPLC stability study in phosphate buffers; assay type: physicochemical; conditions: for remaining at 24 h, 14.6 µg/mL / half-life at 14.6 µg/mL: phosphate buffer, 37 °C; for remaining at 24 h, 14.6 µg/mL: HPLC
Summary of the method: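 Compound stock (5 mg in 10 mL 80:20 acetonitrile–water) added to phosphate buffers at pH 4, 7.4 and 9 and held at 37 °C. Sampled over 24 h (0 min to 24 h) and analysed by C18 HPLC with UV detection at 254 nm; single experiments.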

[6] = tested on: HG-3 cells; assay: Annexin V/PI apoptosis assay (FACS); assay type: cell-based, human
Protocol: (§2) The pro-apoptotic effects of selected nitrovinylethanoanthracene compounds 20a and 20f and anthracene chalcones 23a and 25n in HG-3 cells and PGA-1 cells was then investigated using FITC (fluorescein isothiocyanate), Annexin V/PI (propidium iodide) and FACS (fluorescence-activated cell sorting) analysis to characterize the mode of cellular death induced. Apoptosis was assessed as % total apoptosis (total of early (Q3) and late (Q2) apoptosis).
(§3) CLL cells PGA-1 and HG-3 (1 × 10^6 cells/mL) were treated at 37 °C with either the vehicle (1% (v/v) DMSO) or the ethanoanthracene compounds 20a, 20f, 23a and 25n (10 µM, 5 µM and 1 µM) for 48 h, following the protocol previously described. The cells were then harvested via centrifugation at 400× g in a temperature-controlled Sorvall centrifuge. The cells were rinsed with Ca^2+ Annexin-V-binding buffer (0.1 M HEPES, pH 7.4; 0.14 M NaCl; 25 mM CaCl2, 0.5 mL). The samples were resuspended in FITC Annexin V (diluted 1:33 in Ca^2+ Annexin V-binding buffer, 50 µL) and incubated for 10 min (on ice and protected from light). The samples were washed with Annexin-V-binding buffer and resuspended in a PI solution (0.5 µg/mL, 500 µL) and analyzed within 1 h using a BD Accuri C6 flow cytometer counting 10,000 cells using the FlowJo software Version 10 (FlowJo LLC, Ashland, OR, USA).

[7] = tested on: PGA-1 cells; assay: Annexin V/PI apoptosis assay (FACS); assay type: cell-based, human; conditions: PGA-1, 10 µM
Protocol: as §2, §3

[8] = tested on: SF295; assay: NCI-60 five-dose assay; assay type: cell-based; conditions: Homo sapiens, SF-295
Protocol: as §1

[9] = tested on: T-47D; assay: NCI-60 five-dose assay; assay type: cell-based; conditions: Homo sapiens, T47D
Protocol: as §1

O=C(/C=C/C12c3ccccc3C(c3ccccc31)C1C(=O)NC(=O)C12)c1ccc(F)cc1 (racemic) [Compound 23h]
GI50 ([1]; Homo sapiens): 1370 nM

O=C(/C=C/C12c3ccccc3C(c3ccccc31)C1C(=O)NC(=O)C12)c1ccc(Cl)cc1 (racemic) [Compound 23l, (E)-9-(3-(4-Chlorophenyl)-3-oxoprop-1-en-1-yl)-9,10-dihydro-9,10-[3,4]epipyrroloanthracene-12,14-dione]
GI50 [1]: 1100 nM
GI50 ([2]; HL-60(TB)): 1470 nM
cell viability [3]: 0.7%
cell viability [4]: 5%

O=C(C=CC12c3ccccc3C(c3ccccc31)C1C(=O)NC(=O)C12)c1ccc(Br)cc1 (stereo not shown) [Compound 23a, 9-(E)-3-(4-Bromophenyl)-3-oxoprop-1-en-1-yl)-9,10-dihydro-9,10-[3,4]epipyrroloanthracene-12,14-dione]
recovery at 24 h ([5]; over the pH range studied (pH 4, 7.4 and 9)): < 50%
remaining at 24 h, 14.6 µg/mL ([5]; pH 4 buffer, read-out: % remaining 24 h pH 4): 3.12%
half-life at 14.6 µg/mL ([5]; pH 4 buffer, read-out: Half-life pH 4 (converted)): 798 min
remaining at 24 h, 14.6 µg/mL ([5]; pH 7.4 buffer, read-out: % remaining 24 h pH 7.4): 1.38%
half-life at 14.6 µg/mL ([5]; pH 7.4 buffer, read-out: Half-life pH 7.4 (converted)): ~450 min
remaining at 24 h, 14.6 µg/mL ([5]; pH 9 buffer, read-out: % remaining 24 h pH 9): 0.48%
half-life at 14.6 µg/mL ([5]; pH 9 buffer, read-out: Half-life pH 9 (converted)): ~450 min
total apoptosis (early Q3 + late Q2) ([6]; HG-3, 1 µM): 33%
total apoptosis (early Q3 + late Q2) ([6]; HG-3, 10 µM): 82–95% and 95%
total apoptosis (early Q3 + late Q2) [7]: 87–97% and 89%

O=C(C=CC12c3ccccc3C(c3ccccc31)C1C(=O)N(c3ccc(Cl)cc3)C(=O)C12)c1ccccn1 (stereo not shown) [Compound 25n, (E)-13-(4-Chlorophenyl)-9-(3-oxo-3-(pyridin-2-yl)prop-1-en-1-yl)-9,10-dihydro-9,10-[3,4]epipyrroloanthracene-12,14-dione]
GI50 [8]: 379 nM
GI50 [9]: 312 nM
GI50 ([2]; HL-60(TB)): 292 nM
GI50 ([2]; Homo sapiens, HL-60, HL-60(TB)): 290 nM
total apoptosis (early Q3 + late Q2) ([6]; HG-3, 1 µM): 37%
total apoptosis (early Q3 + late Q2) ([6]; HG-3, 10 µM): 82–95% and 93%
total apoptosis (early Q3 + late Q2) [7]: 87–97% and 87%
